Data from US20130263297A1, “METHODS OF TREATING CANCER” (Cedars-Sinai Medical Center, priority 2010, published 2013).
Entries after “also recorded” stand apart in the source; their conditions may differ.

Tests used:
RAW 264.7 cells = assay: In vitro osteoclastogenesis assay (co-culture of RAW 264.7 osteoclast precursor cells with prostate cancer cells, TRAP staining); assay type: cell-based, mouse
Experimental: The co-cultures of osteoclast precursor cells (RAW 264.7 cells) and prostate cancer cells were performed in 48-well plate containing 500 μl of α-MEM media supplemented with 10% FBS and were set up in quadruplicates. Osteoclast precursor cells were seeded with prostate cancer cells in an 8:1 ratio (15,000 RAW 264.7 cells and 1,875 prostate cancer cells) per well. Recombinant mouse RANKL (100 ng/ml, provided by Dr. Xu Feng), was added to the assay as the positive control. Additionally, recombinant OPG (1 μg/ml) was added to designated wells to block RANKL-mediated increased osteoclastogenesis. The cells were checked under the microscope daily from day-4 to day-7. Cells were fixed and subjected to tartrate-resistant acid phosphatase (TRAP) staining (Sigma-Aldrich, Inc., St. Louis, Mo.). TRAP^+ multinucleated cells (3 nuclei) in the entire well were counted as mature osteoclasts and the images were taken under light microscopy.

ARCaPE-RANKL cells = assay: Soft agar (anchorage-independent) colony formation, ARCaPE-RANKL; assay type: cell-based, human; conditions: addition of OPG
LNCaP-RANKL cells = assay: Soft agar (anchorage-independent) colony formation, LNCaP-RANKL; assay type: cell-based, human; conditions: addition of OPG
[1] = system: RANKL-expressing prostate cancer cells; assay: Stem cell and neuroendocrine marker expression; assay type: cell-based
human cancer cells = assay: Bone colonization by human cancer cells (FIG. 34); assay type: in vivo; conditions: recombinant sRANKL

osteoprotegerin [OPG]
formation of mature osteoclasts induced by ARCaPE-RANKL and LNCaP-RANKL cells (RAW 264.7 cells; addition of OPG (1 μg/ml) to co-culture with RAW264.7): blocked; also recorded: decreased by approximately two-fold | osteoclastogenesis induced by Neo-transfected control cells (RAW 264.7 cells; addition of OPG to co-culture with RAW264.7): very minimal blocking effects | soft agar colony formation (tumorigenicity) of ARCaPE-RANKL cells (ARCaPE-RANKL cells): attenuated | soft agar colony formation (tumorigenicity) of LNCaP-RANKL cells (LNCaP-RANKL cells): attenuated | expression of neuroendocrine markers [1]: blocked | expression of stem cell markers [1]: antagonized

B1: RANKL: trimerized recombinant RANKL protein (rRANKL), receptor activator of NF-KB ligand (protein, UniProt O14788 69-317, looked up)
extracellular domain: YFRAQMDPNRISEDGTHCIYRILRLHENADFQDTTLESQDTKLIPDSCRRIKQAFQGAVQKELQHIVGSQHIRAEKAMVDGSWLDLAKRSKLEAQPFAHLTINATDIPSGSHKVSLSSWYHDRGWAKISNMTFSNGKLIVNQDGFYYLYANICFRHHETSGDLATEYLQLMVYVTKTSIKIPSSHTLMKGGSTKYWSGNSEFHFYSINVGGFFKLRSGEEISIEVSNPSLLDPDQDATYFGAFKVRDID
modifications: extracellular domain trimerized
bone colonization by human cancer cells (human cancer cells): promotes bone colonization
